Several values for one entry are separate records, joined by “and”; a condition that tells them apart may be missing. Equal values may be shown once. Entries after “also recorded” stand apart in the source; their conditions may differ.
Columns and labels:
[1] = target: T1, hTPC2 (Homo sapiens, UniProt Q8NHX9); assay: Whole-endolysosome recordings of ITPC2; assay type: biochemical; conditions: for Dose-dependent activation of TPC2 (normalized current): individual patches; for inactivation of ITPC2, I500ms / I10ms: @-120mV
T1 construct: expressed in transfected cells; host or cells: Cos1 and HEK293

[2] = target: T2, surface-expressing mutant TPC2 channel (TPC2^LL/AA) in HEK293 cells (Homo sapiens, UniProt Q8NHX9, L11A/L12A); assay: Whole-cell recordings of ITPC2-LL/AA; assay type: cell-based; conditions: for voltage-dependent inactivation of ITPC2, I1s / 0s: @-140mV, whole-cell
T2 construct: expressed in transfected cells; host or cells: HEK293
Summary of the method: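 HEK293 cells transiently expressing EGFP-tagged human TPC2 L11A/L12A, a plasma-membrane-targeted mutant, recorded 24–36 h post-transfection. Whole-cell patch clamp with fast perfusion of bath solutions; currents digitized at 10 kHz and filtered at 2 kHz.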

[3] = target: T3, hTPC1 (Homo sapiens, UniProt Q9ULQ1); assay: Whole-endolysosome recordings of ITPC1; assay type: biochemical
T3 construct: expressed in transfected cells; host or cells: Cos1
Protocol: It was therefore of interest to explore whether TCAs/LyNa-VAs could also act on TPC1. To investigate this, we used two different voltage paradigms. […] Second, we used a tail current paradigm to measure the amplitude of the peak inward current at −120 mV following prolonged steps to various potentials (Figure 4E).
Figure 4. […] HP = 0 mV. […] Dotted lines in A indicate where the currents were measured. […] Data are presented as Mean ± S.E.M (n = 3 patches). […] (G) Normalized I-V plots of basal voltage-dependent currents in WT TPC1- and TPC1^R540I-transfected cells. […] Figure 4—source data 1. […] Figure 4—figure supplement 1. […] (A) A voltage protocol that elicited ITPC1 tail currents as shown in Figure 4E (from −140 to 100 mV with a ∆V = 20 mV, 1 s with a 10 s inter-step interval). Arrows indicate where tail currents were measured. (B) A voltage protocol that elicited ITPC1 tail currents as shown in C. […] HP = 0 mV. […] (A) Basal whole-endolysosome ITPC1 (left) or ITPC1-R540I (right) was elicited by voltage steps (−140 to +100 mV with ΔV = 20 mV) in the absence of PI(3,5)P2 in TPC1-transfected Cos1 cells ([She et al., 2019]). Tail currents were elicited at −120 mV. (B) The effects of PI(3,5)P2 (0.3 µM) on ITPC1 (left) and ITPC1-R540I (right) step currents. […] A preconditioning voltage (+80 mV, 0.1 s) was applied before voltage steps starting from −140 to 100 mV (0.5 s, ∆V = 20 mV).
All TPC1 and TPC2 mutants were generated with a site-directed mutagenesis kit (Qiagen) using EGFP- human TPC1 and TPC2 as the templates. All constructs were confirmed by DNA sequencing.
Whole-endolysosome recordings were performed on manually isolated enlarged endolysosomes ([Wang et al., 2012]). In brief, a patch pipette was pressed against a cell and quickly pulled away to slice the cell membrane. Enlarged endolysosomes were released into a dish and identified by monitoring EGFP-TPC1/2 or the mCherry-TPC1/2 fluorescence. After formation of a gigaseal between the patch pipette and the enlarged endolysosome, capacitance transients were compensated. Voltage steps of several hundred mVs with millisecond duration were then applied to break into the vacuolar membrane. The whole-endolysosome configuration was verified by the re-appearance of capacitance transients after break-in.
Data were collected using an Axopatch 200A patch clamp amplifier, Digidata 1440, and pClamp 10.2 software (Axon Instruments). Whole-endolysosome currents were digitized at 10 kHz and filtered at 2 kHz. All experiments were conducted at room temperature (21–23°C), and all recordings were analyzed with pClamp 10.2, and Origin 8.0 (OriginLab, Northampton, MA). The permeability to cations (relative to PNa) was estimated based on following equations ([Lewis, 1979]) and Erev measurement under bi-ionic conditions:(1) PX/PNa=γNa/γX{[Na^+]Luminal/[X^+]Cytoplasmic}{exp([…])} (2) PCa/PNa=γNa/γCa{[Na^+]Cytoplasmic/[4[Ca^2+]Luminal}{exp(ErevF/RT)}{1+exp(ErevF/RT)} where R, T, F, Erev, and γ are, respectively, the gas constant, absolute temperature, Faraday constant, reversal potential, and activity coefficient. The liquid junction potentials were measured and corrected as described ([Neher, 1992]).

[4] = PI(3,5)P2 0.3 µM, LyNa-VA1.2 100 µM, LyNA1 300 µM, individual tests
[5] = LyNA1 (300 µM)-induced whole-cell ITPC2-LL/AA, individual

T1 sequence (Q8NHX9 whole entry): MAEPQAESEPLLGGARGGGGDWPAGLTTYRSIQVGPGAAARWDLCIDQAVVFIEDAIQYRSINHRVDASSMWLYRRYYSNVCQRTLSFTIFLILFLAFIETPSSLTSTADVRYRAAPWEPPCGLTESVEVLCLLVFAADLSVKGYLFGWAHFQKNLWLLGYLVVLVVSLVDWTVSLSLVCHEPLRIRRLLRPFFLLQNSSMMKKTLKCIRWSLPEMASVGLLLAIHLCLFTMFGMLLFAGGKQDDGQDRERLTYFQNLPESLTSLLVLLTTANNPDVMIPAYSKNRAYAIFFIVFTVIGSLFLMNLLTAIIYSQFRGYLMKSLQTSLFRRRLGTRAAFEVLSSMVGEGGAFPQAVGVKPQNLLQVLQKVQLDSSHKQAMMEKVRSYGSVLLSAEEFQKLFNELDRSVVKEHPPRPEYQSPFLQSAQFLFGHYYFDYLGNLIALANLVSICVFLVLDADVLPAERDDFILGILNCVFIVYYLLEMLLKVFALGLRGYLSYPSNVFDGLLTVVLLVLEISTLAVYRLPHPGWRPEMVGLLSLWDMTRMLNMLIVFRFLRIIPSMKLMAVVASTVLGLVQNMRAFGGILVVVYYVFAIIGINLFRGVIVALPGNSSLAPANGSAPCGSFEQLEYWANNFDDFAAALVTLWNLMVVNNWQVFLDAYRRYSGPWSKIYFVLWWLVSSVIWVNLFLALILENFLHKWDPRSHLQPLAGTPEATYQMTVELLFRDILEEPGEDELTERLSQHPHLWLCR
T2 sequence (Q8NHX9 whole entry L11A/L12A): as the sequence (Q8NHX9 whole entry) above, with L11A, L12A counted along it

Question: Which results are given for Nc1nc2ccc(OC(F)(F)F)cc2s1 [LyNA1, Riluzole]?
Answer: cation selectivity of induced whole-endolysosome ITPC2 (in words) [1]: highly selective for Na^+ over K^+; voltage dependence of TPC2 activation (in words) [1]: voltage independent; also recorded: no apparent voltage-dependent activation; Dose-dependent activation of TPC2 (normalized current) ([1]; 10 µM +10nM PI(3,5)P2): 0.03469 and -0.1321 and -0.1628; Dose-dependent activation of TPC2 (normalized current) ([1]; 50 µM +10nM PI(3,5)P2): 0.02967 and -0.04581 and -0.07904; Dose-dependent activation of TPC2 (normalized current) ([1]; 50 µM, absence of PI(3,5)P2): 0.02084 and 0.03963 and 0.0267; Dose-dependent activation of TPC2 (normalized current) ([1]; 100 µM +10nM PI(3,5)P2): 0.3825 and 0.3197 and 0.06652; Dose-dependent activation of TPC2 (normalized current) ([1]; 100 µM, absence of PI(3,5)P2): 0.1347 and 0.1166 and 0.2034 and 0.258 and 0.1062; Dose-dependent activation of TPC2 (normalized current) ([1]; 150 µM +10nM PI(3,5)P2): 0.5952 and 0.5358 and 0.2713; Dose-dependent activation of TPC2 (normalized current) ([1]; 150 µM, absence of PI(3,5)P2): 0.4553 and 0.5013 and 0.5031 and 0.7594 and 0.3882; Dose-dependent activation of TPC2 (normalized current) ([1]; 300 µM +10nM PI(3,5)P2): 0.9432 and 0.8992 and 0.9659; Dose-dependent activation of TPC2 (normalized current) ([1]; 300 µM, absence of PI(3,5)P2): 0.9388 and 0.9543; Dose-dependent activation of TPC2 (normalized current) ([1]; 400 µM +10nM PI(3,5)P2): 1 (2×) and 1.003; Dose-dependent activation of TPC2 (normalized current) ([1]; 400 µM, absence of PI(3,5)P2): 0.9725 and 0.9884 and 0.9899 and 0.9935 and 0.9997 and 0.9921; EC50 ([1]; + PI(3,5)P2 (10 nM)): 175 ± 19 µM; EC50 ([1]; - PI(3,5)P2): 181 ± 6 µM; inactivation of ITPC2, I500ms / I10ms [1, 4]: 0.9047 and 1.003 and 0.9967 and 0.9738; inactivation of ITPC2, I500ms / I10ms ([1]; mean): 0.9697; combined effect with PI(3,5)P2 on whole-endolysosome ITPC2 (in words) ([1]; PI(3,5)P2 50 nM): additive but not synergistic activation; also recorded: Additive effects; Rectification index of ITPC2, I+80mV/I-80mV [1, 4]: 0.903 and 1.02 and 0.912 and 0.8953; Rectification index of ITPC2, I+80mV/I-80mV ([1]; PI(3,5)P2 0.3 µM, LyNa-VA1.2 100 µM, LyNA1 300 µM, mean): 0.93 ± 0.03 and 0.9325; activation of whole-endolysosome ITPC2 (in words) ([1]; bath application, symmetric Na^+): readily activated ITPC2; I@500ms/I@10ms (current decline at steady state) ([1]; voltage-step protocols, at all potentials): ~1.0; voltage-dependent inactivation of ITPC2, I1s / 0s ([2]; individual recordings): 0.9086 and 1.046 and 0.9409; voltage-dependent inactivation of ITPC2, I1s / 0s ([2]; mean): 0.9653; Px/PNa+, Ca2+ [2, 5]: 0.09045 and 0.1026 and 0.1022 and 0.09007; Px/PNa+, K+ [2, 5]: 0.05625 and 0.0959 and 0.1041; Px/PNa+, Na+ [2, 5]: 0.8393 and 1.008 and 0.9746; activation of whole-cell ITPC2-LL/AA (in words) ([2]; bath application, symmetric Na^+, 100 µM where stated): activated large and linear whole-cell currents; effect on whole-endolysosome ITPC1 (in words) [3]: inhibited ITPC1

From article PMC6905855, “Agonist-specific voltage-dependent gating of lysosomal two-pore Na^+ channels” (eLife, 2019)
